Results from patent publication US8188075B2, “Triazole compounds that modulate HSP90 activity” (Synta Pharmaceuticals Corp., priority 2006, dated 2012).

How the values were obtained:
[1] = system: VE-cadherin junctions between HUVEC cells; assay: immunofluorescence study of VE-cadherin junctions between HUVEC cells; assay type: cell-based, human; conditions: 24 hrs
Experimental: An immunofluorescence study was performed by using anti-VE-cadherin antibodies (1:1 mixed, obtained from Amersham Biosciences, NJ, and Santa Cruz Biotechnology, CA) to examine VE-cadherin junctions between HUVEC cells. HUVEC cells were treated with DMSO or Compound 226 (10, 100 and 1000 nM) for 24 hrs and fixed for immunostaining. DMSO concentration was 1:100 for all treatments. To boost the immunofluorescence signal, cells were stained with a mixture of 2 polyclonal anti-human VE-cadherin Abs followed by staining with a mixture of fluorescent secondary antibodies. […] Non-DMSO treated cells gave a similar result to those with DMSO treatment (data not shown). […] This effect could result in limited motility of the cells and reducing permeability of the endothelium, thus contributing to the cell migration inhibition and the potential anti-angiogenesis effect of Compound 226.

HUVEC = HUVEC killing (separate reference experiment); assay type: cell-based; conditions: Homo sapiens
[2] = system: human umbilical vein endothelial cell (HUVEC); assay: in vitro HUVEC migration assay (time-lapse imaging of scraped confluent cultures); assay type: cell-based
Experimental: To examine if the compounds of the invention affect endothelial cell function, an in vitro human umbilical vein endothelial cell (HUVEC) migration assay was performed in the presence of Compound 226. HUVEC cells (ATCC, VA) (passage number 4) were cultured in EGM2 medium (Cambrex, Mass.) on 12-well plates and performed time-lapse imaging with the live cell imaging system on an inverted microscope supplied with 6-7% CO2. The temperature was kept at 37° C. Images were taken every 30 minutes using the 2× objective for up to 106 hr (results in FIGS. 1, 2 and 3), or, every 60 seconds using the 20× objective for 30 min (for FIG. 4). Confluent HUVEC cultures were scraped similarly to make a blank area, followed by culturing in HUVEC medium for 15 hr without treatment. The migration areas, which were imaged as time-lapse sequences for each well, were used as a basis to standardize/correct migration rates. Then, migration of cells under different treatments was imaged at the same time to generate time-lapse image sequences for each well. Time-lapse movies were further analyzed by measuring areas that were covered by migrating cells. […] The red lines indicate the front lines of migrating cells. DMSO (1:100) treated cells migrated rapidly and covered the entire blank (wounded) area at 106 hr. […] During experiments, HUVEC cells were activated by the presence of VEGF (Cambrex, Mass.) and basic FGF (Cambrex, Mass.).
In addition to the analysis of HUVEC cell migration, HUVEC behavior was also tracked during above treatments.

Compound: CC(C)c1cc(-c2nnc(O)n2-c2ccc3c(ccn3C)c2)c(O)cc1O [Compound 226, 3-(2,4-dihydroxy-5-isopropyl-phenyl)-4-(1-methyl-indol-5-yl)-5-hydroxy-[1,2,4] triazole]
- VE-cadherin staining in cell-cell junction regions ([1]; 10 nM, compared to DMSO): extremely strong
- VE-cadherin staining areas ([1]; 100 nM): further increase the VE-cadherin staining areas
- VE-cadherin molecules distribution ([1]; 1 μM): Aggregations of VE-cadherin molecules appeared
- IC50 (HUVEC): ~800 nM
- migration of HUVEC cells to the blank area ([2]; 100 nM and 1 μM, up to 106 hr, compared to DMSO, cells activated by VEGF and basic FGF): completely blocked migration
- HUVEC cell-cell contact lines (morphology) ([2]; 100 nM, 2× and 20× magnification (FIG. 4)): Cell-cell contact lines disappeared
- movement of HUVEC cells in time-lapse videos (20× objective) ([2]; 100 nM, versus DMSO treated cells): significantly reduced movement
- IC50 ([2]; Homo sapiens, HUVEC, estimated from similar covered areas at 100 nM and 1 μM (FIG. 2), read-out: IC50 of the inhibition of HUVEC migration): < 100 nM
- HUVEC cell shrinkage ([2]; after 24 hr treatment with 100 nM and 1 μM): began to shrink
- cell death of HUVEC during migration assay ([2]; at 24 hr (FIG. 3)): no significant cell death
- HUVEC cell survival ([2]; at 48 hr, 1 μM): majority of cells were alive
